Among the data in a melting point compilation (Tetko et al.; mined from patent text by program, amines drawn as free bases though some values may be those of a salt) are melting point values, retold here.

Some results are limits rather than exact numbers.

In general, melting point refers to the temperature of the solid-liquid transition. `Cc1c(C(=O)O)ncn1Cc1ccc2oc(-c3ccccc3-c3nnn[nH]3)c(Br)c2c1` returned a melting point of 248 °C.

In turn, `Cc1c(Cl)sn(-c2ccccc2)c1=O` had a melting point of 60 to 68 °C.

As to `c1ccc(C(=C(c2ccccc2)P(C2CCCCC2)C2CCCCC2)c2ccccc2)cc1`, the melting point was 121 to 123 °C. Under `CCCCCCC1(CCCCCC)c2cc(C#N)ccc2-c2ccc(C#N)cc21` stands 116 to 118 °C.

`CCOC(=O)C(C#N)c1cn(C(=O)OCC)c2cc(Cl)ccc12` (stereo not given) had a melting point of 126 to 128 °C. The compound `N#Cc1cn(C2CC(O)C(CO)O2)c(=O)[nH]c1=O` (stereo not given) came in with a melting point of 161 °C. Compound `CCOc1cc2nc(NC)nc(-c3cccc(-c4cccnc4SC)c3)c2cc1OCC` gave a melting point of 105 to 107 °C. In the case of `CN1CCC(c2c[nH]c3ccc(NC(=O)c4cc5ccccc5s4)nc23)CC1`, the melting point is 202 to 204 °C. `COc1ccc2c(Cc3c(Cl)cncc3Cl)nncc2c1C#Cc1ccccc1` registered a melting point of 217 to 219 °C. `c1ccc2cc(N3CCNCC3)ncc2c1` returned a melting point of 95 to 96 °C.

`CCC1CC(=O)C=C(c2ccc(OCC(=O)O)c(Cl)c2Cl)C1` (stereo not given) had a melting point of 163 to 165 °C. Under `COc1ccc(Cc2cc3cccc(-c4cccc(C(=O)NCCN5CCCC5)c4)c3o2)cc1OC` stands 119 to 120 °C; under `CCOC(=O)C(OCc1ccc(Cl)cc1)(C(F)(F)F)C(F)(F)F`, 33 °C; under `OCCCCCCC1CCC2C(C=CC3=CCCc4c3n2c2ccncc42)C1` (stereo not given), 101 to 102 °C.

Consider `COc1ccc(CN(C)CCCSc2ccc(NC(=O)c3cccc4c(=O)c5cccc(OC)c5[nH]c34)cc2)cc1OC`, for which the melting point was 184 to 186 °C.

`O=C1C2C3C=CC(C3)C2C(=O)N1OS(=O)(=O)C(F)(F)F` (stereo not given) displayed a melting point of 89 to 90 °C.

As for `O=C(O)CCCCc1ccc(NS(=O)(=O)c2ccc(Cl)cc2)cn1`, the melting point was in the range of 145 to 147 °C. Next, `Cc1ccc(S(=O)(=O)OCC2Cc3cccc(OS(=O)(=O)C(F)(F)F)c3O2)cc1` (stereo not given): 60 to 63 °C; `Cn1cnc(-c2ccccc2)c1-c1ccncc1`: 161 to 162 °C. `O=C(Nc1ccc(C(=O)N2C[C@@H]3CCCN3c3ccccc32)cc1)c1ccccc1-c1ccccc1` came in with a melting point of 200 °C. For the compound `Cc1ccc2c(c1)N(CC(=O)c1ccccc1C)C(=O)C(NC(=O)Nc1ccc(C)c(C(=O)O)c1)CN2C(=O)c1cccs1` (stereo not given), the melting point is 192 to 195 °C.

As for `O=C(Cc1cccc(C(F)(F)F)c1)c1c(O)c2cccnc2n(-c2ccccc2)c1=O`, the melting point lay within 201 to 203 °C. On to `CCC(=O)c1ccc(OC)c(O)c1`, for which the melting point lay within 91 to 92 °C.

The compound `Cc1c(-c2ncncc2Br)ssc1=S` showed a melting point of 122 °C. `COc1ccccc1-n1c(=O)[nH]c2c(C(N)=O)nc(-n3cnc4ccccc43)nc21` returned a melting point of 318 to 319 °C. With `O=C(Oc1ccccc1N1c2ccccc2S(=O)(=O)c2ccccc21)c1ccccc1`, the melting point was 228 to 232 °C. Under `Cc1cccc(Nc2cc(Cl)nc(SCC(=O)NN3CCOCC3)n2)c1C` stands 106 to 108 °C. Under `O=C(c1cc(C2=CCCCC2)ccn1)N(O)Cc1ccccc1` stands 118 to 122 °C. Next, `NS(=O)(=O)c1ccc(N2CC(=O)N(C3CCCCC3)C2=O)cc1`: 237 to 238 °C; `CCCSc1cscc1S(=O)(=O)NC(C)(C)C`: 61 to 63 °C. For `NC(=O)NC1CCC(c2ccccc2-n2nc(C(F)(F)F)cc2C(F)(F)F)CC1` (stereo not given), the melting point was in the range of 185 to 188 °C. Under `N#Cc1c[nH]c(Cl)c1-c1ccccc1` stands 140 to 142 °C; under `O=C1NN=C(CCc2ccccc2)c2c[nH]c3cccc1c23`, 182 to 184 °C; under `CCn1cnc2c(Nc3cccc(C(=O)OC)c3)nc(Cl)nc21`, 148 °C.

`O=C(Nc1cccnc1)c1ccc(OC(F)F)c2oc3ccc(C(F)(F)F)cc3c12` showed a melting point of 235 to 236 °C. For the compound `N#CCc1nn2c(-c3cccc(C(F)(F)F)c3)ccnc2c1C#N`, the melting point was in the range of 180 to 181 °C.

Consider `N=C(N)Nc1nc(CSCCNC2=NS(=O)(=O)N=C2N)cs1`, for which the melting point lay within 134 to 149 °C. The compound `CC(C)c1cccc(C(C)C)c1NC(=O)CNCC1(Nc2ccccc2)CCCCC1` had a melting point of 104 to 106 °C. Take `COC(=O)c1ccc(NC(=O)c2ccccc2C)nc1`: the melting point lay in the range of 167 to 169 °C. As to `CCOC(=O)N(c1ccc(Cl)cc1)c1ccccc1N`, the melting point lay within 112 to 115 °C. Compound `NN(Cc1ccccc1[N+](=O)[O-])c1ccc(Cl)cc1` had a melting point of 105 to 106 °C.

`CNC(=O)ON=C1SC(C)(C)N=C1C` displayed a melting point of 90 to 92 °C. Under `COC(=O)c1nc(C)c(-c2nccs2)s1` stands 129 to 130 °C; under `C#CCn1c(C(F)(F)F)c(CO)c2ccccc21`, 90 °C. Under `COc1cc(COc2nn(C)cc2C(C)=O)ccc1OCc1nc(-c2ccccc2)oc1C` stands 170 to 171 °C. The compound `Fc1ccc(Nc2ncnc3ccc(-c4ccsc4)cc23)cc1Cl` came in with a melting point of 195 to 197 °C.

`C#CCN(C(=O)C(F)(F)F)[C@H]1CCc2ccc([N+](=O)[O-])cc21` showed a melting point of 83 to 85 °C. With `CCOC1C(NC(C)=O)CC(OC)OC1C` (stereo not given), the melting point fell in the range of 199 to 200 °C. For the compound `CNc1cc(Oc2ccc(NC(=O)Nc3ccc(C(C)(C)C)cc3)cc2)ncn1`, the melting point fell in the range of 245 to 246 °C. Under `Cc1cc(N(C)CC(=O)N2CCN(Cc3ccc4c(c3)OCO4)CC2)ccc1Oc1ccc([N+](=O)[O-])cn1` stands 142 to 143 °C. Under `Cc1ccc(S(=O)(=O)c2cc3cnc(C)nc3nc2O)cc1` stands over 200 °C; under `O=[N+]([O-])c1ccc2c(c1)OC(C1(CCCCCl)OCCO1)CO2` (stereo not given), 74 to 76 °C. Under `CCN(Cc1ccccc1)C(=O)c1c(-c2ccncc2)c(-c2ccc(F)cc2)nn1CC` stands 115 to 117 °C; under `COc1nc(C)cc(C(=O)NS(=O)(=O)c2ccccc2[N+](=O)[O-])n1`, 212 to 216 °C. In turn, `Cc1c(NC(=O)c2ccc(-c3ccccc3)cc2)ccc2cc(CN3CCCC3)cnc12` registered a melting point of 184 to 186 °C. Under `COc1ccc(S(=O)(=O)Nc2ncnc(Cl)c2Cc2ccccc2OC)cc1` stands 149 to 151 °C; under `CC1(C)CCC(C)(C)c2cc(CC#Cc3ccc(C(N)=O)cc3)ccc21`, 207 to 208 °C. Next, `c1ccc(C2CN3CCN=C3S2)nc1` (stereo not given): 70 °C. Next, `COc1ccccc1Oc1c(NS(=O)(=O)c2ccc(C(C)(C)C)cc2)ncnc1OCCO`: 143 to 148 °C; `CC(C)OC(=O)COc1ccc(CCNS(=O)(=O)c2ccccc2)cc1`: 56 to 57 °C. With `CCNC(=O)Nc1ccc(C(O)(C(F)(F)F)C(F)(F)F)cc1[N+](=O)[O-]`, the melting point lay in the range of 169 to 171 °C. In the case of `CC(C)(C)C(O)(COC1CCCCO1)Cn1ccnc1` (stereo not given), the melting point was found to be 107 °C. As for `Cc1cnc(-c2ccc(C(F)(F)F)cc2)nc1Cl`, the melting point lay within 110 to 112 °C.

In turn, `CC(=O)NC(C)c1ccc(CN2CCN(c3ccccn3)CC2)cc1` (stereo not given) returned a melting point of 120 to 121 °C. Consider `CCCCc1ccc(N)c(C(=O)C(=O)OC(=O)C(=O)c2cc(CCCC)ccc2N)c1`, for which the melting point fell in the range of 218 to 220 °C. In turn, `O=S(=O)(NCc1ccnc2c(Cl)cccc12)c1ccc(Br)cc1` returned a melting point of 185 °C. Regarding `O=C(Nc1ccc(-n2nc(C(F)(F)F)cc2C(F)(F)F)cc1)c1ccc(F)cc1Cl`, the melting point was 155 to 157 °C. `Cc1ccccc1-c1cccc(F)c1C#N` returned a melting point of 57 to 58 °C. Next, `NC(=O)c1c(C(=O)O)cccc1[N+](=O)[O-]`: 188 °C; `CCCCCCCCCCCCCCCCCCNC(=O)C=Cc1ccc(O)cc1`: 114 °C. `COc1c(F)cc2c(O)c(C(=O)NCc3ccc(Cl)cc3)cnc2c1OC` came in with a melting point of 228 to 229 °C. For the compound `O=C(NCc1ccncc1)c1ccnc(N2CCN(CC3CC3)C2=O)c1`, the melting point was in the range of 160 to 162 °C. Regarding `Cc1c(C)c2c(c(C)c1N)CC(C)(CN1CCOCC1)O2` (stereo not given), the melting point was 114 to 115 °C. Consider `CCc1noc(C)c1C(=O)Nc1cccc(F)c1`, for which the melting point was 99.5 to 101 °C.

`CN1C(=O)CCC2c3ccc(Cl)cc3CCC21` (stereo not given) yielded a melting point of 82 °C. Compound `O=c1cc(O)cc(-c2cccc(Cl)c2)o1` yielded a melting point of 254 to 256 °C.

For `Cc1cc(OCCCC(=O)N(CCCCO)C2CCCCC2)cc(C=O)c1[N+](=O)[O-]`, the melting point lay within 72 to 73 °C. Consider `CN(CCc1ccccc1)C(=O)C(O)C(O)c1ccccc1` (stereo not given), for which the melting point was in the range of 145 to 147 °C. Next, `O=c1c(Cc2ccccc2)cn(-c2cccc(Cl)c2)c2ncccc12`: 170 to 171 °C; `CC(C)Oc1ccc(C(=O)NCCCCCCCNC(=O)c2ccc(OC(C)C)cc2)cc1`: 135 to 136 °C; `COc1ccc(CC2CC(=O)CCN2C(=O)c2cc(C(F)(F)F)cc(C(F)(F)F)c2)cc1OC` (stereo not given): 133 °C.

In turn, `Nc1cccc(-c2ccc(CCN3CCN(C(=O)COc4ccccc4)CC3)cc2)n1` gave a melting point of 127 to 130 °C. Under `COc1cncc(-c2cncc(OC3SCC(O)C(O)C3O)c2)c1` (stereo not given) stands 193 °C. Next, `CC(C)Nc1nc2cc(F)c(F)cc2[nH]1`: 188 to 189 °C; `Cc1cc(O)c(O)cc1Br`: 92 to 98 °C; `O=c1oc2c(O)c(O)ccc2c2cc(O)c(O)cc12`: over 250 °C. Under `Cn1nnc(-c2cccnc2)n1` stands 108 to 110 °C. Compound `CC(C)(C)NC(=S)Nc1cc(Br)cc(Br)c1` gave a melting point of 172 to 174 °C.

`O=c1[nH]c2sc3cc(Br)c(F)cc3c2[nH]c1=O`: the melting point was over 300 °C. For the compound `CN1CC2Cc3ccc(Cl)cc3C(O)C2C1` (stereo not given), the melting point is 178 to 182 °C.
